Measurements taken from patent US8188059B2, “Compounds and methods for modulating expression of GCGR” (Isis Pharmaceuticals, Inc., priority 2006, dated 2012).
Strand notation (5' to 3'): a small letter for the sugar, then the base; units joined by * are phosphorothioate-linked, units joined directly phosphodiester-linked; [ ] holds rarer units or linkages, { } end groups; capitals alone tell only the bases. e = 2'-O-(2-methoxyethyl) (MOE); [5mC] = 5-methylcytosine; d = 2'-deoxy (DNA)

What was measured:
Type in all cases: in vivo, mouse
GCGR mRNA = GCGR mRNA levels in liver and estimated ED50, C57/BL6 mice, single i.p. dose (Example 5, Tables 44, 45)
Experimental: Eight-week old male C57/BL6 mice (Jackson Laboratory, Bar Harbor, Me.) were administered a single dose of GCGR antisense compound by intraperitonel (i.p.) injection at a concentration of 10, 3.2, 1, and 0.32 μmol·kg. Each dose group consisted of four animals. Shown in Table 43 are the sequences, motifs and conjugates of the GCGR antisense compounds used in this study. Bolded residues indicate 2′-O-methoxyethyl (2′-MOE) modifications and the italicized residues indicate methyleneoxy (4′-CH2—O-2′) BNA modifications. All antisense compounds comprise phosphorothioate internucleoside linkages throughout and each cytosine is replaced with 5-methylcytosine. GCGR antisense compounds target published GCGR nucleic acids, including Genbank Accession No. BC031885.1 (SEQ ID NO: 7).
To determine whether the phenotypic changes shown above correlated with a decrease in GCGR mRNA, treated animals were evaluated for levels of target mRNA in liver by RT, real time PCR according to methods described herein. Table 44 show results from direct comparisons of the antisense compounds targeting GCGR nucleic acid for their effect on target expression. Results are expressed as percent of saline control.

[1] = Triglyceride, cholesterol and glucose levels, pre-bleed and post-bleed (Example 4, Table 34); design: TRIG Pre-Bleed / TRIG Post-Bleed / CHOL Pre-Bleed / CHOL Post-Bleed / Glucose Pre-Bleed / Glucose Post-Bleed: unit not given here; details: C57/BL6 mice; for CHOL Pre-Bleed / Glucose Pre-Bleed / TRIG Pre-Bleed: pre-treatment bleed; for CHOL Post-Bleed / Glucose Post-Bleed / TRIG Post-Bleed: post-treatment bleed, 48 h
[2] = Total and full-length antisense compound concentrations in liver and kidney (Example 4, Table 42); details: C57/BL6 mice; single i.p. dose; 48 h; dose not given
Experimental: (§1) Eight-week old male C57/BL6 mice (Jackson Laboratory, Bar Harbor, Me.) were administered a single dose of GCGR oligonucleotide by intraperitoneal injection at a concentration of […]. Each dose group consisted of four animals. Shown in Table 31 are the sequences, motifs and conjugates of the GCGR antisense compounds used in this study. Bolded residues indicate 2′-O-methoxyethyl (2′-MOE) moieties. All compounds comprise phosphorothioate internucleoside linkages throughout and each cytosine is replaced with 5-methylcytosine. ISIS 386626, ISIS 386627 and ISIS 386628 further comprise a C16 conjugate group attached to the 2′-O position of the sugar via a diamide linkage (2′-OCH2C(═O)N(H)(CH2)4N(H)C(═O)—(CH2)15CH3). GCGR antisense compounds target published GCGR sequences, including Genbank® Accession No. BC031885.1 (SEQ ID NO: 7).
(§2) Mice were sacrificed 48 hours following injection to determine serum transaminase levels (Table 32); liver, white adipose tissue (WAT), spleen and kidney weight (Table 33); cholesterol, triglyceride and glucose levels (Table 34); GCGR mRNA levels (Tables 35-41); and full-length and total oligonucleotide concentration in liver and kidney (Table 42). Endpoints were assessed using methods described herein and well known to those of ordinary skill in the art. Data is included from a pre-treatment bleed (Pre-Bleed) and post-treatment bleed (Post-Bleed).
Treatment with the 2-10-2 MOE gapmers led to a significant dose-dependent decrease in GCGR mRNA expression. […] To determine whether the observed increase in efficiency with the short antisense compounds is due to an increase in antisense compound accumulation, full-length and total antisense compound concentration in the liver and kidney were determined.

[3] = ALT & AST levels, C57/BL6 mice (Example 4, Table 32); details: for ALT Pre-Bleed / AST Pre-Bleed: pre-treatment bleed; for ALT Post-Bleed / AST Post-Bleed: 48 hours following injection
Experimental: as §1, §2

[4] = Organ weights: liver, white adipose tissue, spleen, kidney (Example 4, Table 33); details: 48 h, C57/BL6 mice
Experimental: as §1, §2

148364 (antisense eT*eG*e[5mC]*eA*e[5mC]*dT*dT*dT*dG*dT*dG*dG*dT*dA*d[5mC]*e[5mC]*eA*eA*eG*eG) [compound 148364]
GCGR mRNA levels in liver (GCGR mRNA; 0.32 μmol/kg single i.p.): 105% of saline control | GCGR mRNA levels in liver (GCGR mRNA; 1 μmol/kg single i.p.): 106% of saline control | GCGR mRNA levels in liver (GCGR mRNA; 3.2 μmol/kg single i.p.): 73% of saline control | GCGR mRNA levels in liver (GCGR mRNA; 10 μmol/kg single i.p.): 38% of saline control | CHOL Pre-Bleed ([1]; 6.25 mg/kg group): 86 | Glucose Pre-Bleed ([1]; 6.25 mg/kg group): 226 | TRIG Pre-Bleed ([1]; 6.25 mg/kg group): 86 | CHOL Post-Bleed ([1]; 6.25 mg/kg single i.p.): 89 | Glucose Post-Bleed ([1]; 6.25 mg/kg single i.p.): 215 | TRIG Post-Bleed ([1]; 6.25 mg/kg single i.p.): 162 | CHOL Pre-Bleed ([1]; 12.5 mg/kg group): 85 | Glucose Pre-Bleed ([1]; 12.5 mg/kg group): 198 | TRIG Pre-Bleed ([1]; 12.5 mg/kg group): 106 | CHOL Post-Bleed ([1]; 12.5 mg/kg single i.p.): 89 | Glucose Post-Bleed ([1]; 12.5 mg/kg single i.p.): 256 | TRIG Post-Bleed ([1]; 12.5 mg/kg single i.p.): 179 | CHOL Pre-Bleed ([1]; 25 mg/kg group): 83 | Glucose Pre-Bleed ([1]; 25 mg/kg group): 219 | TRIG Pre-Bleed ([1]; 25 mg/kg group): 115 | CHOL Post-Bleed ([1]; 25 mg/kg single i.p.): 96 | Glucose Post-Bleed ([1]; 25 mg/kg single i.p.): 239 | TRIG Post-Bleed ([1]; 25 mg/kg single i.p.): 200 | CHOL Pre-Bleed ([1]; 50 mg/kg group): 81 | Glucose Pre-Bleed ([1]; 50 mg/kg group): 207 | TRIG Pre-Bleed ([1]; 50 mg/kg group): 110 | CHOL Post-Bleed ([1]; 50 mg/kg single i.p.): 94 | Glucose Post-Bleed ([1]; 50 mg/kg single i.p.): 228 | TRIG Post-Bleed ([1]; 50 mg/kg single i.p.): 177 | Full-length antisense compound concentration, Kidney [2]: 58 µg/g | Full-length antisense compound concentration, Liver [2]: 46 µg/g | Total antisense compound concentration, Kidney [2]: 90 µg/g | Total antisense compound concentration, Liver [2]: 54 µg/g | ALT Pre-Bleed ([3]; 6.25 mg/kg dose group): 28 IU/L | AST Pre-Bleed ([3]; 6.25 mg/kg dose group): 47 IU/L | ALT Pre-Bleed ([3]; 12.5 mg/kg dose group): 23 IU/L | AST Pre-Bleed ([3]; 12.5 mg/kg dose group): 44 IU/L | ALT Pre-Bleed ([3]; 25 mg/kg dose group): 26 IU/L | AST Pre-Bleed ([3]; 25 mg/kg dose group): 42 IU/L | ALT Pre-Bleed ([3]; 50 mg/kg dose group): 24 IU/L | AST Pre-Bleed ([3]; 50 mg/kg dose group): 40 IU/L | ALT Post-Bleed ([3]; single i.p. dose 6.25 mg/kg): 34 IU/L | AST Post-Bleed ([3]; single i.p. dose 6.25 mg/kg): 76 IU/L | ALT Post-Bleed ([3]; single i.p. dose 12.5 mg/kg): 32 IU/L | AST Post-Bleed ([3]; single i.p. dose 12.5 mg/kg): 69 IU/L | ALT Post-Bleed ([3]; single i.p. dose 25 mg/kg): 35 IU/L | AST Post-Bleed ([3]; single i.p. dose 25 mg/kg): 87 IU/L | ALT Post-Bleed ([3]; single i.p. dose 50 mg/kg): 40 IU/L | AST Post-Bleed ([3]; single i.p. dose 50 mg/kg): 115 IU/L | Organ weight: Kidney ([4]; 6.25 mg/kg single i.p.): 104 % saline control | Organ weight: Liver ([4]; 6.25 mg/kg single i.p.): 101 % saline control | Organ weight: Spleen ([4]; 6.25 mg/kg single i.p.): 113 % saline control | Organ weight: WAT ([4]; 6.25 mg/kg single i.p.): 89 % saline control | Organ weight: Kidney ([4]; 12.5 mg/kg single i.p.): 108 % saline control | Organ weight: Liver ([4]; 12.5 mg/kg single i.p.): 100 % saline control | Organ weight: Spleen ([4]; 12.5 mg/kg single i.p.): 96 % saline control | Organ weight: WAT ([4]; 12.5 mg/kg single i.p.): 84 % saline control | Organ weight: Kidney ([4]; 25 mg/kg single i.p.): 112 % saline control | Organ weight: Liver ([4]; 25 mg/kg single i.p.): 103 % saline control | Organ weight: Spleen ([4]; 25 mg/kg single i.p.): 115 % saline control | Organ weight: WAT ([4]; 25 mg/kg single i.p.): 75 % saline control | Organ weight: Kidney ([4]; 50 mg/kg single i.p.): 108 % saline control | Organ weight: Liver ([4]; 50 mg/kg single i.p.): 103 % saline control | Organ weight: Spleen ([4]; 50 mg/kg single i.p.): 123 % saline control | Organ weight: WAT ([4]; 50 mg/kg single i.p.): 80 % saline control
